Experimental findings from US8097650B2, “Method of treating a condition associated with phosphorylation of TASK-1” (The Trustees of Columbia University In The City of New York, priority 2005, dated 2012) are described below.

Assay type in all cases: cell-based
For experiment [1], the system named is mouse ventricular myocytes. Put plainly: Action potentials in paced mouse ventricular myocytes (current clamp). To be noted: C-PAF 185 nM. Here is the method:
(§1) Adult mice, 2-3 months old, were anesthetized with ketamine/xylazine and their hearts were removed according to protocols approved by the Columbia University-IACUC. Experiments were performed on single rod-shaped, quiescent ventricular myocytes dissociated using a standard retrograde collagenase perfusion (Kuznetsov V et al. (1995) Circ Res 76: 40-52) from hearts of mice that were either wild-type (WT), or PAFR knockouts (KO). Both WT and KO mice were bred on a C57/B16 background. The derivation of the KO mice has been described previously (Hoffman, B F et al.(1996) J Cardiovasc Electrophysiol 7:120-133).
Prior to electrophysiological measurements, cells were placed into the perfusion chamber and superfused at room temperature with Tyrode's buffer (in mM: NaCl, 140; KCl, 5.4; CaCl2 1; MgCl2, Hepes, 5; Glucose, 10; pH 7.4). […]
Current and voltage protocols were generated using Clampex 7.0 software applied by means of an Axopatch 200B amplifier and a Digidata 1200 interface (Axon Instruments). […] Data were analyzed using pCLAMP 8.0 (Axon) and Origin 6.0 (Microcal) and are presented as mean±SEM. Steady-state current was determined by computer calculation of average current over a time period of at least 5 s. […] Records have been corrected for the junction potential, which was measured to be 9.8 mV.

In experiment [2] the test system is quiescent myocytes. Put plainly: Spontaneous activity in quiescent mouse ventricular myocytes (current clamp). The following applies: C-PAF 185 nM. As to the method: as §1
(§2) Prior to electrophysiological measurements, cells were placed into the perfusion chamber and superfused at room temperature with Tyrode's buffer (in mM: NaCl, 140; KCl, 5.4; CaCl2 1; MgCl2, Hepes, 5; Glucose, 10; pH 7.4). The whole-cell patch clamp technique was used with pipettes having resistances of 1.5-3 MΩ (intracellular solution, in mM: aspartic acid, 130; KOH, 146; NaCl, 10; CaCl2, 2; EGTA, 5; Hepes, 10; MgATP, 2; pH 7.2). Solutions of C-PAF, the PAFR antagonist, CV-6209 (Biomol) and the PKC inhibitor, bisindolylmaleimide I (BIM I; Calbiochem) were prepared in water and diluted in Tyrode's before use. […] A custom-made fast perfusion device was used to exchange the solution around the cell within 1 s (DiFrancesco et al. (1986) J Physiol 377: 61-88).
(§3) Current and voltage protocols were generated using Clampex 7.0 software applied by means of an Axopatch 200B amplifier and a Digidata 1200 interface (Axon Instruments). During voltage clamp, steady state current traces were acquired at 500 Hz and final filtered at 10 Hz. During current clamp, membrane voltage was acquired at 5 KHz and filtered at 1 KHz. Ramp clamps were conducted by imposing a voltage ramp (14 mV/s) at a 500 Hz acquisition rate with 1 kHz filtering. Data were analyzed using pCLAMP 8.0 (Axon) and Origin 6.0 (Microcal) and are presented as mean±SEM. Steady-state current was determined by computer calculation of average current over a time period of at least 5 s. In all experiments, the n value indicates the number of myocytes studied, and represents pooled data from at least 2 (voltage clamp) or 3 (current clamp) animals. Student's t-test, one-way ANOVA and χ^2 tests were used; a value of p<0.05 was considered statistically significant. Records have been corrected for the junction potential, which was measured to be 9.8 mV.

In experiment [3] the target is T1, TASK-1 (Mus musculus, UniProt O35111).
T1 construct: endogenous in cells; host or cells: adult mouse ventricular myocytes (C57/B16 background; WT or PAFR KO)
T1 sequence (O35111 whole entry): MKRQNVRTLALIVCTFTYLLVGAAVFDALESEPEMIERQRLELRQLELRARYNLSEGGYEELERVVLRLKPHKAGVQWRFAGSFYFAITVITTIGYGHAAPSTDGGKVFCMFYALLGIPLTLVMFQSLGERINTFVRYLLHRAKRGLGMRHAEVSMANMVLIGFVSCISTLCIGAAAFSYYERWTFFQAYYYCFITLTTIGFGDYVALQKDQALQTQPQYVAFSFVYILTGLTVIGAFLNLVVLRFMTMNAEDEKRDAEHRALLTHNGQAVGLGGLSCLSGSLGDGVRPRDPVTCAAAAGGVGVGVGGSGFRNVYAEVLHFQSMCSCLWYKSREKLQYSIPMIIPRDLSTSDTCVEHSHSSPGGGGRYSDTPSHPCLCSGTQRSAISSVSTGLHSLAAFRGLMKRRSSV
Description: C-PAF-sensitive steady-state current in murine ventricular myocytes (voltage clamp). The following applies: for C-PAF-sensitive current density: held at −70 mV. Here is the method:
as §1, §2, §3

As for `CCCCCCCCCCCCCCCCOC[C@H](COP(=O)([O-])OCC[N+](C)(C)C)OC(=O)NC` [C-PAF, carbamyl-platelet-activating factor], in experiment [1] (3 min perfusion), the “cells in which membrane potential returned to normal during agonist perfusion” value is recorded as 8 of 9. In addition, in experiment [1] (paced WT myocytes), the “delay before C-PAF-evoked responses” value was determined as 94 ± 21 s. Also, the “PAFR KO myocytes with no response” value in experiment [2] is 7 of 9. In experiment [2], the “quiescent WT myocytes sensitive to C-PAF superfusion” value was 11 of 11. For the same compound, in experiment [2] (quiescent WT myocytes), the “initial delay of the effect” value came out at 96 ± 11 s. For the same compound, the decrease in conductance in experiment [3] (+10 mV step, cells held at −10 mV) stood at 17.5±3.9%. Besides, in experiment [3] (extracellular K+ 50 mM, Cs+ 5 mM, TEA 1 mM), the “reversal potential of C-PAF-sensitive current” value was −20.4±3 mV. In addition, the figures for the C-PAF-sensitive current density in experiment [3] (control cells) and in experiment [3] (in the presence of Cs+ 5 mM) were 0.047±0.01 pA/pF and 0.047±0.03 pA/pF, respectively. In addition, the “time to peak of C-PAF-sensitive current” value in experiment [3] (−70 mV) is 74 ± 13 s.
